This passage reports T/C results from PubChem BioAssay AID248 (DTP/NCI, 2004).

Structures are written as SMILES. “And” between values parts separate entries of the source, which are not always exact repeats. Equal values may be shown once. Toxic doses and inconclusive results are not listed.

The test system of this experiment is L1210 leukemia ip in BDF1 mice, survival T/C. Kind of experiment: NCI In Vivo Anticancer Drug Screen. Data for tumor model L1210 Leukemia (intraperitoneal) in B6D2F1 (BDF1) mice. As to conditions: endpoint: mean survival time, higher = longer survival. The gist of the method: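 Each compound was tested against a transplantable tumor grown in mice. The endpoint was survival, with treated animals benchmarked against vehicle controls as a simple ratio.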

Setting [1] is: dose: 100.0 mg/kg/injection, schedule: Q01DX001 (ip), vehicle: carboxymethylcellulose (CMC).
Setting [2] is: dose: 200.0 mg/kg/injection, schedule: Q01DX001 (ip), vehicle: carboxymethylcellulose (CMC).
The mark [3] stands for this setting: dose: 400.0 mg/kg/injection, schedule: Q01DX001 (ip), vehicle: carboxymethylcellulose (CMC).
Setting [4] is: dose: 100.0 mg/kg/injection, schedule: Q04DX003 (ip), vehicle: saline with Tween-80.
Setting [5] is: dose: 200.0 mg/kg/injection, schedule: Q04DX003 (ip), vehicle: saline with Tween-80.
Setting [6] is: dose: 400.0 mg/kg/injection, schedule: Q04DX003 (ip), vehicle: saline with Tween-80.
The mark [7] stands for this setting: dose: 100.0 mg/kg/injection, schedule: Q01DX001 (ip), vehicle: saline.
Setting [8] is: dose: 200.0 mg/kg/injection, schedule: Q01DX001 (ip), vehicle: saline.
[9] abbreviates: dose: 100.0 mg/kg/injection, schedule: Q01DX009 (ip), vehicle: saline with Tween-80.
Setting [10] is: dose: 200.0 mg/kg/injection, schedule: Q01DX009 (ip), vehicle: saline with Tween-80.
Where [11] appears, read: dose: 400.0 mg/kg/injection, schedule: Q01DX009 (ip), vehicle: saline with Tween-80.
[12] abbreviates: dose: 100.0 mg/kg/injection, schedule: Q01DX009 (ip), vehicle: saline.
Where [13] appears, read: dose: 200.0 mg/kg/injection, schedule: Q01DX009 (ip), vehicle: saline.
The mark [14] stands for this setting: dose: 400.0 mg/kg/injection, schedule: Q01DX009 (ip), vehicle: saline.
Where [15] appears, read: dose: 100.0 mg/kg/injection, schedule: Q04DX003 (ip), vehicle: saline.
Where [16] appears, read: dose: 200.0 mg/kg/injection, schedule: Q04DX003 (ip), vehicle: saline.
The mark [17] stands for this setting: dose: 400.0 mg/kg/injection, schedule: Q04DX003 (ip), vehicle: saline.

On to `C=CCc1cc2c(cc(OC)c1=O)C(NC(C)=O)CCc1cc(OC)c(OC)c(OC)c1-2` (stereo not given), for which the T/C is 106 % of control under setting [1], 109 % of control under setting [2] and 114 % of control under setting [3].

`CN(C)c1ncnc2[nH]cc([N+](=O)[O-])c12`: the T/C by setting is: under setting [1], 93 % of control; under setting [2], 93 % of control.

Take `c1ccc(N2CCN(c3ccccc3)C2c2ccc3c(c2)CCC3)cc1`: the T/C reads like this: under setting [4], 92 % of control; under setting [5], 90 % of control; under setting [6], 104 % of control.

Regarding `O=C1CCC(=O)N1c1ccc(Cl)cc1`, the T/C runs as follows: (dose: 12.5 mg/kg/injection, schedule: Q01DX009 (ip), vehicle: Klucel (hydroxypropylcellulose) (HPC)) 107 % of control; (dose: 25.0 mg/kg/injection, schedule: Q01DX009 (ip), vehicle: Klucel (hydroxypropylcellulose) (HPC)) 98 % of control; (dose: 50.0 mg/kg/injection, schedule: Q01DX009 (ip), vehicle: Klucel (hydroxypropylcellulose) (HPC)) 101 % of control.

For `NC(=N\C1=NCCN1)/C(N)=N/C1=NCCN1`, the T/C reads like this: (dose: 100.0 mg/kg/injection, schedule: Q04DX002 (ip), vehicle: gum acacia) 89 % of control; (dose: 200.0 mg/kg/injection, schedule: Q04DX002 (ip), vehicle: gum acacia) 100 % of control; (dose: 400.0 mg/kg/injection, schedule: Q04DX002 (ip), vehicle: gum acacia) 97 % of control.

Take `CC(c1ccccc1)n1cnc2c(=O)[nH]cnc21` (stereo not given): the T/C was 106 % of control (dose: 50.0 mg/kg/injection, schedule: Q01DX001 (ip), vehicle: carboxymethylcellulose (CMC)); 101 % of control under setting [1]; 101 % of control under setting [2]; 95 % of control under setting [3].

On to `CCCCc1nc2c(c(=O)n(C)c(=O)n2C)n1C`, for which the T/C was 96 % of control (dose: 50.0 mg/kg/injection, schedule: Q01DX001 (ip), vehicle: saline); 96 % of control under setting [7]; 102 % of control under setting [8].

On to `CS(=O)(=O)c1ncc2cnccn12`, for which the T/C (dose: 100.0 mg/kg/injection, schedule: Q01DX009 (ip), vehicle: water) was 101 % of control; the T/C (dose: 100.0 mg/kg/injection, schedule: Q04DX003 (ip), vehicle: water) is 109 % of control; the T/C (dose: 200.0 mg/kg/injection, schedule: Q01DX009 (ip), vehicle: water) is 109 % of control; the T/C (dose: 400.0 mg/kg/injection, schedule: Q04DX003 (ip), vehicle: water) was 110 % of control.

On to `C1=C(c2ccccc2)N(C2CCCCCC2)C(c2ccccc2)=CN1Cc1ccccc1`, for which the T/C reads like this: (dose: 100.0 mg/kg/injection, schedule: Q04DX002 (ip), vehicle: Klucel (hydroxypropylcellulose) (HPC)) 96 % of control; (dose: 200.0 mg/kg/injection, schedule: Q04DX002 (ip), vehicle: Klucel (hydroxypropylcellulose) (HPC)) 107 % of control; (dose: 400.0 mg/kg/injection, schedule: Q04DX002 (ip), vehicle: Klucel (hydroxypropylcellulose) (HPC)) 100 % of control.

For the molecule `COC(=O)Nc1cccc(OC(=O)NCC(C)C)c1`, the T/C runs as follows: under setting [9], 87 % of control; under setting [10], 91 % of control; under setting [11], 96 % of control.

Take `O=C1C=CC(=O)C2C1C1(Cl)CC2(Cl)C(Cl)=C1Cl` (stereo not given): the T/C is, setting by setting: (dose: 6.25 mg/kg/injection, schedule: Q04DX002 (ip), vehicle: Klucel (hydroxypropylcellulose) (HPC)) 100 % of control; (dose: 12.5 mg/kg/injection, schedule: Q04DX002 (ip), vehicle: Klucel (hydroxypropylcellulose) (HPC)) 95 % of control; (dose: 25.0 mg/kg/injection, schedule: Q04DX002 (ip), vehicle: Klucel (hydroxypropylcellulose) (HPC)) 100 % of control and 108 % of control.

For the molecule `CCN(CC)C(N)=Nc1ccc(NC(=O)c2ccc(C(=O)Nc3ccc(N=C(N)N(CC)CC)cc3)cc2)cc1`, the T/C runs as follows: (dose: 1.8 mg/kg/injection, schedule: Q01DX Z (ip), vehicle: water) 113 % of control; (dose: 6.5 mg/kg/injection, schedule: Q01DX Z (ip), vehicle: water) 180 % of control; (dose: 50.0 mg/kg/injection, schedule: Q01DX Z (oral), vehicle: water) 101 % of control; (dose: 200.0 mg/kg/injection, schedule: Q01DX Z (oral), vehicle: water) 107 % of control; (dose: 400.0 mg/kg/injection, schedule: Q01DX Z (oral), vehicle: water) 93 % of control.

Consider `CC(C)(C)OC(=O)NCC(=O)NNC(=O)OC(C)(C)C`, for which the T/C is 92 % of control under setting [12]; 101 % of control (dose: 100.0 mg/kg/injection, schedule: Q04DX003 (ip), vehicle: saline sonified); 89 % of control under setting [13]; 97 % of control (dose: 200.0 mg/kg/injection, schedule: Q04DX003 (ip), vehicle: saline sonified); 92 % of control under setting [14]; 95 % of control (dose: 400.0 mg/kg/injection, schedule: Q04DX003 (ip), vehicle: saline sonified).

Turning to `CC1(C)C(=O)C(C)(C)C1=NO`, the T/C reads like this: under setting [15], 103 % of control; under setting [16], 95 % of control; under setting [17], 103 % of control.

As to `CC1(C)C=CC(C)(C)c2c(NS(=O)(=O)c3ccccc3)ccc(NS(=O)(=O)c3ccccc3)c21`, the T/C was 97 % of control under setting [9], 92 % of control under setting [10] and 94 % of control under setting [11].

For the molecule `S=c1[nH]sc(=S)[nH]1`, the T/C runs as follows: under setting [9], 100 % of control; under setting [10], 98 % of control.

`Cc1c(C(=O)O)nnn1-c1ccccc1`: the T/C by setting is: (dose: 75.0 mg/kg/injection, schedule: Q01DX001 (ip), vehicle: saline) 97 % of control; (dose: 150.0 mg/kg/injection, schedule: Q01DX001 (ip), vehicle: saline) 96 % of control.

Regarding `Cn1[nH]cc(/C=N/C(N)=O)c1=O`, the T/C was 93 % of control under setting [7]; 91 % of control under setting [8]; 87 % of control (dose: 400.0 mg/kg/injection, schedule: Q01DX001 (ip), vehicle: saline).

With `CN(C)c1ccc(/C=C2\C=Nc3ccccc32)cc1`, the T/C runs as follows: under setting [4], 87 % of control; under setting [5], 87 % of control; under setting [6], 87 % of control.

Take `BrC1C2C=CCC1CC2` (stereo not given): the T/C by setting is: under setting [12], 91 % of control; under setting [15], 96 % of control; under setting [13], 97 % of control; under setting [16], 96 % of control; under setting [14], 94 % of control; under setting [17], 94 % of control.

As to `CCOC(=O)NN(C(=O)OCC)c1c(N)nc(N)[nH]c1=O`, the T/C reads like this: (dose: 100.0 mg/kg/injection, schedule: Q01DX001 (ip), vehicle: Klucel (hydroxypropylcellulose) (HPC)) 92 % of control; (dose: 200.0 mg/kg/injection, schedule: Q01DX001 (ip), vehicle: Klucel (hydroxypropylcellulose) (HPC)) 101 % of control; (dose: 400.0 mg/kg/injection, schedule: Q01DX001 (ip), vehicle: Klucel (hydroxypropylcellulose) (HPC)) 92 % of control.
